± gives the expanded uncertainty stated by the source.
Tests used:
[1] = xn = mol fraction of the nth substance listed; details: 101 kPa, Liquid; for viscosity: Capillary tube (Ostwald / Ubbelohde) method; for mass density: Vibrating tube method
[2] = 101 kPa, Liquid; for viscosity: Capillary tube (Ostwald / Ubbelohde) method; for mass density: Vibrating tube method

CC(C)CC(C)(C)C [2,2,4-trimethylpentane] + CCCCCCCO
[1], x1 = 1
Details | mass density [kg/m3] | viscosity [mPa·s]
298.15 K | 687.82 ± 2 | 0.478 ± 0.006
303.15 K | 683.68 ± 2 | 0.453 ± 0.005
308.15 K | 679.52 ± 2 | 0.429 ± 0.005
313.15 K | 675.32 ± 2 | 0.408 ± 0.005
318.15 K | 671.1 ± 2 | 0.388 ± 0.005
323.15 K | 666.85 ± 2 | 0.369 ± 0.005

CCCO [propan-1-ol] + CC(C)CC(C)(C)C
[1], x2 = 0
Details | mass density [kg/m3] | viscosity [mPa·s]
298.15 K | 800.03 ± 2 | 1.955 ± 0.023
303.15 K | 796.01 ± 2 | 1.737 ± 0.02
308.15 K | 791.92 ± 2 | 1.548 ± 0.018
313.15 K | 787.79 ± 2 | 1.384 ± 0.016
318.15 K | 783.65 ± 2 | 1.241 ± 0.015
323.15 K | 779.43 ± 2 | 1.117 ± 0.013

CC(C)CC(C)(C)C [2,2,4-trimethylpentane]
[2]
Details | mass density [kg/m3] | viscosity [mPa·s]
298.15 K | 687.82 ± 2 | 0.478 ± 0.006
303.15 K | 683.68 ± 2 | 0.453 ± 0.005
308.15 K | 679.52 ± 2 | 0.429 ± 0.005
313.15 K | 675.32 ± 2 | 0.408 ± 0.005
318.15 K | 671.1 ± 2 | 0.388 ± 0.005
323.15 K | 666.85 ± 2 | 0.369 ± 0.005

CCCO [propan-1-ol]
[2]
Details | mass density [kg/m3] | viscosity [mPa·s]
298.15 K | 800.03 ± 2 | 1.955 ± 0.023
303.15 K | 796.01 ± 2 | 1.737 ± 0.02
308.15 K | 791.92 ± 2 | 1.548 ± 0.018
313.15 K | 787.79 ± 2 | 1.384 ± 0.016
318.15 K | 783.65 ± 2 | 1.241 ± 0.015
323.15 K | 779.43 ± 2 | 1.117 ± 0.013

CCCCCCCO [heptan-1-ol]
[2]
Details | mass density [kg/m3] | viscosity [mPa·s]
298.15 K | 818.82 ± 2 | 6.004 ± 0.073
303.15 K | 815.3 ± 2 | 5.079 ± 0.062
308.15 K | 811.75 ± 2 | 4.374 ± 0.054
313.15 K | 808.17 ± 2 | 3.8 ± 0.047
318.15 K | 804.57 ± 2 | 3.224 ± 0.04
323.15 K | 800.93 ± 2 | 2.851 ± 0.035

CCCCCCO [hexan-1-ol]
[2]
Details | mass density [kg/m3] | viscosity [mPa·s]
298.15 K | 815.3 ± 2 | 4.605 ± 0.056
303.15 K | 811.71 ± 2 | 3.944 ± 0.048
308.15 K | 808.09 ± 2 | 3.414 ± 0.042
313.15 K | 804.43 ± 2 | 2.96 ± 0.036
318.15 K | 800.75 ± 2 | 2.581 ± 0.032
323.15 K | 797.02 ± 2 | 2.251 ± 0.028

CC(C)CC(C)(C)C [2,2,4-trimethylpentane] + CCCCCO
[1], x1 = 1
Details | mass density [kg/m3] | viscosity [mPa·s]
298.15 K | 687.82 ± 2 | 0.478 ± 0.006
303.15 K | 683.68 ± 2 | 0.453 ± 0.005
308.15 K | 679.52 ± 2 | 0.429 ± 0.005
313.15 K | 675.32 ± 2 | 0.408 ± 0.005
318.15 K | 671.1 ± 2 | 0.388 ± 0.005
323.15 K | 666.85 ± 2 | 0.369 ± 0.005

CC(C)CC(C)(C)C [2,2,4-trimethylpentane] + CCCCCCO
[1], x1 = 1
Details | mass density [kg/m3] | viscosity [mPa·s]
298.15 K | 687.82 ± 2 | 0.478 ± 0.006
303.15 K | 683.68 ± 2 | 0.453 ± 0.005
308.15 K | 679.52 ± 2 | 0.429 ± 0.005
313.15 K | 675.32 ± 2 | 0.408 ± 0.005
318.15 K | 671.1 ± 2 | 0.388 ± 0.005
323.15 K | 666.85 ± 2 | 0.369 ± 0.005

CCCCCO [pentan-1-ol]
[2]
Details | mass density [kg/m3] | viscosity [mPa·s]
298.15 K | 810.59 ± 2 | 3.458 ± 0.042
303.15 K | 807.89 ± 2 | 3.007 ± 0.037
308.15 K | 804.16 ± 2 | 2.625 ± 0.032
313.15 K | 800.4 ± 2 | 2.317 ± 0.029
318.15 K | 796.59 ± 2 | 2.029 ± 0.025
323.15 K | 792.75 ± 2 | 1.795 ± 0.022
